How the values were obtained:
[1] = 298.15 K; 101.33 kPa; Liquid
[2] = molar heat capacity at constant pressure; settings: 298.15 K; 101.33 kPa; Liquid; Flow calorimetry
[3] = heat capacity at constant pressure per volume; xn = mol fraction of the nth substance listed; settings: 298.15 K, 101.3 kPa, Liquid, Flow calorimetry
[4] = xn = mol fraction of the nth substance listed; settings: 298.15 K, 101.3 kPa, Liquid

CC(C)C(C)O (centres undefined) [3-methyl-2-butanol]
Settings	mass density [kg/m3]	molar heat capacity at constant pressure [J/K/mol]
[1]	812.31	–
[2]	–	249.5

CCCCO [butan-1-ol]
Settings	mass density [kg/m3]	molar heat capacity at constant pressure [J/K/mol]
[1]	805.62	–
[2]	–	177.1

CC(C)CO [2-methyl-1-propanol] + O
Settings	heat capacity, [3] [J/K/m3]	mass density, [4] [kg/m3]
x1 = 0.001575	4175200	995.99
x1 = 0.00181	4176000	995.84
x1 = 0.003631	4184200	994.66
x1 = 0.006044	4195700	993.15
x1 = 0.009083	4209900	991.35
x1 = 0.01143	4220800	989.99
x1 = 0.01647	4247000	987.23

CCC(C)CO (centres undefined) [2-methyl-1-butanol] + O
Settings	heat capacity, [3] [J/K/m3]	mass density, [4] [kg/m3]
x1 = 0.000842	4172700	996.43
x1 = 0.000975	4173400	996.33
x1 = 0.001072	4174000	996.28
x1 = 0.001376	4175300	996.04
x1 = 0.001398	4175600	996.04
x1 = 0.00154	4176300	995.95
x1 = 0.002056	4179200	995.56
x1 = 0.002325	4180700	995.4
x1 = 0.002361	4180800	995.38
x1 = 0.002467	4181400	995.28
x1 = 0.002771	4182700	995.09
x1 = 0.002868	4183400	995.02
x1 = 0.002988	4184000	994.91
x1 = 0.003068	4184200	994.84
x1 = 0.003107	4184500	994.81
x1 = 0.003446	4186500	994.6

CCC(O)CC [3-pentanol] + O
Settings	heat capacity, [3] [J/K/m3]	mass density, [4] [kg/m3]
x1 = 0.000803	4173700	996.49
x1 = 0.001033	4175300	996.33
x1 = 0.001252	4176900	996.18
x1 = 0.001864	4181400	995.77
x1 = 0.002399	4185100	995.4
x1 = 0.003282	4191500	994.83
x1 = 0.005357	4206400	993.51
x1 = 0.005689	4209600	993.32
x1 = 0.006773	4217300	992.61

CC(C)(C)O [2-methylpropan-2-ol] + O
Settings	heat capacity, [3] [J/K/m3]	mass density, [4] [kg/m3]
x1 = 0.000883	4173400	996.41
x1 = 0.001796	4178600	995.74
x1 = 0.002923	4185200	994.98
x1 = 0.004051	4192000	994.22
x1 = 0.006409	4206500	992.64
x1 = 0.00867	4220900	991.22
x1 = 0.01153	4239100	989.43
x1 = 0.01716	4276400	986.35

CCC(C)(C)O [2-methylbutan-2-ol] + O
Settings	heat capacity, [3] [J/K/m3]	mass density, [4] [kg/m3]
x1 = 0.00166	4180000	995.9
x1 = 0.001774	4181000	995.84
x1 = 0.002795	4188600	995.15
x1 = 0.005273	4207000	993.56
x1 = 0.006999	4220500	992.51
x1 = 0.009307	4239300	991.15
x1 = 0.01213	4263400	989.63
x1 = 0.01355	4275900	988.89

CCC(O)CC [3-pentanol]
Settings	mass density [kg/m3]	molar heat capacity at constant pressure [J/K/mol]
[1]	815.3	–
[2]	–	254.6

CC(C)CCO [3-methylbutan-1-ol]
Settings	mass density [kg/m3]	molar heat capacity at constant pressure [J/K/mol]
[1]	804.18	–
[2]	–	209.3

CC(C)O [propan-2-ol]
Settings	mass density [kg/m3]	molar heat capacity at constant pressure [J/K/mol]
[1]	780.72	–
[2]	–	155.2

CC(C)O [propan-2-ol] + O
Settings	heat capacity, [3] [J/K/m3]	mass density, [4] [kg/m3]
x1 = 0.001072	4172300	996.38
x1 = 0.001923	4175600	995.85
x1 = 0.003078	4179900	995.16
x1 = 0.00413	4183900	994.53
x1 = 0.005976	4191200	993.44
x1 = 0.009312	4204200	991.51
x1 = 0.01437	4225200	988.91
x1 = 0.01665	4234700	987.73

CCCO [propan-1-ol]
Settings	mass density [kg/m3]	molar heat capacity at constant pressure [J/K/mol]
[1]	799.52	–
[2]	–	144.3

CC(C)(C)CO [2,2-dimethyl-1-propanol] + O
Settings	heat capacity, [3] [J/K/m3]	mass density, [4] [kg/m3]
x1 = 0.001702	4176200	995.77
x1 = 0.002268	4178900	995.36
x1 = 0.002665	4181000	995.08
x1 = 0.003113	4183100	994.74
x1 = 0.003563	4185300	994.42
x1 = 0.004331	4189100	993.87
x1 = 0.004832	4191800	993.52

CCC(C)(C)O [2-methylbutan-2-ol]
Settings	mass density [kg/m3]	molar heat capacity at constant pressure [J/K/mol]
[1]	804.01	–
[2]	–	251.1

CC(C)CO [2-methyl-1-propanol]
Settings	mass density [kg/m3]	molar heat capacity at constant pressure [J/K/mol]
[1]	797.63	–
[2]	–	181.9

CCCO [propan-1-ol] + O
Settings	heat capacity, [3] [J/K/m3]	mass density, [4] [kg/m3]
x1 = 0.000792	4170900	996.59
x1 = 0.002096	4175200	995.84
x1 = 0.002978	4178200	995.36
x1 = 0.006166	4189500	993.64
x1 = 0.008272	4197000	992.56
x1 = 0.01185	4209800	990.81
x1 = 0.01732	4230600	988.27
x1 = 0.02089	4243100	986.68

CC(C)CCO [3-methylbutan-1-ol] + O
Settings	heat capacity, [3] [J/K/m3]	mass density, [4] [kg/m3]
x1 = 0.000488	4170700	996.67
x1 = 0.000691	4171700	996.51
x1 = 0.001002	4173400	996.29
x1 = 0.001048	4173600	996.22
x1 = 0.00119	4174300	996.13
x1 = 0.001204	4174400	996.13
x1 = 0.001362	4175200	995.99
x1 = 0.001742	4177100	995.68
x1 = 0.002039	4178600	995.47
x1 = 0.002063	4178800	995.45
x1 = 0.002225	4179800	995.36

CCCCCO [pentan-1-ol] + O
Settings	heat capacity, [3] [J/K/m3]	mass density, [4] [kg/m3]
x1 = 0.001069	4174500	996.21
x1 = 0.001645	4177900	995.78
x1 = 0.001775	4178800	995.68
x1 = 0.001916	4179400	995.57
x1 = 0.002185	4181300	995.37
x1 = 0.002474	4182900	995.16
x1 = 0.002743	4184600	994.96
x1 = 0.003049	4186100	994.73
x1 = 0.003529	4189200	994.4

CCCC(C)O (centres undefined) [pentan-2-ol]
Settings	mass density [kg/m3]	molar heat capacity at constant pressure [J/K/mol]
[1]	804.55	–
[2]	–	235.3

CCC(C)CO (centres undefined) [2-methyl-1-butanol]
Settings	mass density [kg/m3]	molar heat capacity at constant pressure [J/K/mol]
[1]	814.54	–
[2]	–	215

CCC(C)O (centres undefined) [butan-2-ol]
Settings	mass density [kg/m3]	molar heat capacity at constant pressure [J/K/mol]
[1]	802.07	–
[2]	–	197.8

CCCCCO [pentan-1-ol]
Settings	mass density [kg/m3]	molar heat capacity at constant pressure [J/K/mol]
[1]	810.68	–
[2]	–	208.8

CCCCO [butan-1-ol] + O
Settings	heat capacity, [3] [J/K/m3]	mass density, [4] [kg/m3]
x1 = 0.001656	4176100	995.94
x1 = 0.003814	4186600	994.54
x1 = 0.005524	4195100	993.48
x1 = 0.006663	4200400	992.78
x1 = 0.009163	4213100	991.32
x1 = 0.01415	4239900	988.57
x1 = 0.01604	4251000	987.56

CC(C)C(C)O (centres undefined) [3-methyl-2-butanol] + O
Settings	heat capacity, [3] [J/K/m3]	mass density, [4] [kg/m3]
x1 = 0.000786	4172900	996.49
x1 = 0.001489	4177000	996.01
x1 = 0.001981	4180000	995.68
x1 = 0.004452	4194900	994.09
x1 = 0.005029	4198500	993.72
x1 = 0.006358	4206900	992.91
x1 = 0.007481	4213800	992.25
x1 = 0.008252	4218900	991.83

CCC(C)O (centres undefined) [butan-2-ol] + O
Settings	heat capacity, [3] [J/K/m3]	mass density, [4] [kg/m3]
x1 = 0.001648	4177000	995.99
x1 = 0.00244	4181300	995.46
x1 = 0.003665	4188100	994.69
x1 = 0.006146	4201900	993.17
x1 = 0.006234	4202800	993.15
x1 = 0.008153	4213300	991.98
x1 = 0.009049	4218100	991.43
x1 = 0.01047	4226800	990.68
x1 = 0.01411	4248500	988.8
x1 = 0.01461	4251800	988.51
x1 = 0.01766	4270000	987

CCCC(C)O (centres undefined) [pentan-2-ol] + O
Settings	heat capacity, [3] [J/K/m3]	mass density, [4] [kg/m3]
x1 = 0.001235	4176700	996.1
x1 = 0.001831	4180800	995.66
x1 = 0.002163	4182900	995.4
x1 = 0.002785	4187300	994.95
x1 = 0.003519	4192400	994.4
x1 = 0.004937	4202200	993.42
x1 = 0.0059	4209100	992.73
x1 = 0.00695	4217100	992.05

— the NIST ThermoML archive (doi:10.1021/je049738c)
